Data as given in US20190137505A1 (THE ARIZONA BOARD OF REGENTS ON BEHALF OF THE UNIVERSITY OF …, priority 2015, published 2019).
Entries after “also recorded” stand apart in the source; their conditions may differ.

Target: T1, plasminogen (Homo sapiens, UniProt P00747)
T1 construct: Glu-Pg, uPA, tPA, fibrinogen, and chromogenic substrate for Pn were purchased from Molecular Innovations (Novi, Mich.); purchased Molecular Innovations (Novi, Mich.)
Assay: LC-MS/MS identification of sites of MG adduction on plasminogen in vitro (Tables 1 and 12)
Conditions: 500 μM MG, 24 hr
Method: 10 μg Pg was incubated with MG (50-500 μM) in tris-buffered saline (TBS) for 24 hours at 37° C. Following modification, sample volumes were increased to 150 μL and placed in 5 kDa spin filters to reduce volume and remove excess MG from solution.
MG-modified (500 μM) and unmodified Pg control (same incubation conditions without MG) were added to 250 μL amount of rehydration buffer (6M urea, 2M thiourea, 2% CHAPS, 100 mM DTT, 0.5% 3-10 ampholytes) and 5 μL of 3-10 ampholytes (Bio-Rad). Sample rehydrated with a 13 cm 4-7 pH isoelectric focusing strip (GE Healthcare) overnight. Following rehydration, strips were placed in a Bio-Rad PROTEAN IEF Cell focusing instrument. Strips were first focused for 1 hour at 500 V, and then run at a maximum of 8,000V until the strips have reached a final total of 45,000 V/hrs at which point gels are held at 500V until removed. Focused strips were removed, reduced with DTT, cysteines carbamidomethylated with iodoacetamide, and run on a 4-20% gradient Criterion gel for 55 minutes at 200V. Gels were stained for stained according to manufacturer instructions with Imperial Blue Protein (ThermoScientific, Rockford, Ill.) and destained immediately with water. Gel bands were excised and trypsin digested.
Coomassie stained gel-bands were excised and washed in ddH2O for 15 min. H2O was removed and bands were incubated in 50/50 acetonitrile (ACN):ddH2O for 15 min. ACN:ddH2O was removed and bands were incubated with ACN for 5 min. ACN was removed and gels were incubated with 100 mM ammonium bicarbonate (AMBIC). An equal volume of ACN was added to make 1:1 solution and was incubated for 15 min. The ACN/AMBIC solution was removed and remaining gel bands were dried by speed-vacuum. 10 mM dithiothreitol (DTT) was added to each band and incubated at 56° C. for 45 min. DTT was removed and sample brought to room temperature (RT). Iodoacetamide (55 mM) was added to each sample and incubated at RT for 30 min in dark. Iodoacetamide was removed and 100 mM AMBIC was added and bands were incubated for 5 min. An equal volume of ACN was added to make a 1:1 solution and incubated for 15 min. The ACN/AMBIC solution was removed and bands were dried by speed-vacuum. Bands were digested with trypsin (400 ng/band) in 50 mM AMBIC and incubated on ice for 45 min. Tryptic solution was removed and 50 mM AMBIC was added to each band and incubated overnight at 37° C. to complete digestion. Digests were acidified using 10% trifluoroacetic acid (TFA). Supernatant was saved. Band was covered with TFA:ACN (0.1%:60%) and sonicated at 20° C. water bath for 30 min. Supernatant was combined with previous fraction. Sampled were speed vacuumed to a final volume of 10 μL prior to LC-MS/MS analysis on an LTQ Orbitrap Velos mass spectrometer as described below.
LC-MS/MS analysis of in-gel trypsin digested-proteins (Shevchenko et al., 1996) was carried out using a LTQ Orbitrap Velos mass spectrometer (Thermo Fisher Scientific, San Jose, Calif.) equipped with an Advion nanomate ESI source (Advion, Ithaca, N.Y.), following ZipTip (Millipore, Billerica, Mass.) C18 sample clean-up according to the manufacturer's instructions. Peptides were eluted from a C18 precolumn (100-μm id×2 cm, Thermo Fisher Scientific) onto an analytical column (75-μm ID×10 cm, C18, Thermo Fisher Scientific) using a 5-20% gradient of solvent B (acetonitrile, 0.1% formic acid) over 65 minutes, followed by a 20-35% gradient of solvent B over 25 minutes, all at a flow rate of 400 nl/min. Solvent A consisted of water and 0.1% formic acid. Data dependent scanning was performed by the Xcalibur v 2.1.0 software (Andon et al., 2002) using a survey mass scan at 60,000 resolution in the Orbitrap analyzer scanning m/z 350-1600, followed by collision-induced dissociation (CID) tandem mass spectrometry (MS/MS) of the fourteen most intense ions in the linear ion trap analyzer. […]

T1 sequence (P00747 20-810 limits assumed): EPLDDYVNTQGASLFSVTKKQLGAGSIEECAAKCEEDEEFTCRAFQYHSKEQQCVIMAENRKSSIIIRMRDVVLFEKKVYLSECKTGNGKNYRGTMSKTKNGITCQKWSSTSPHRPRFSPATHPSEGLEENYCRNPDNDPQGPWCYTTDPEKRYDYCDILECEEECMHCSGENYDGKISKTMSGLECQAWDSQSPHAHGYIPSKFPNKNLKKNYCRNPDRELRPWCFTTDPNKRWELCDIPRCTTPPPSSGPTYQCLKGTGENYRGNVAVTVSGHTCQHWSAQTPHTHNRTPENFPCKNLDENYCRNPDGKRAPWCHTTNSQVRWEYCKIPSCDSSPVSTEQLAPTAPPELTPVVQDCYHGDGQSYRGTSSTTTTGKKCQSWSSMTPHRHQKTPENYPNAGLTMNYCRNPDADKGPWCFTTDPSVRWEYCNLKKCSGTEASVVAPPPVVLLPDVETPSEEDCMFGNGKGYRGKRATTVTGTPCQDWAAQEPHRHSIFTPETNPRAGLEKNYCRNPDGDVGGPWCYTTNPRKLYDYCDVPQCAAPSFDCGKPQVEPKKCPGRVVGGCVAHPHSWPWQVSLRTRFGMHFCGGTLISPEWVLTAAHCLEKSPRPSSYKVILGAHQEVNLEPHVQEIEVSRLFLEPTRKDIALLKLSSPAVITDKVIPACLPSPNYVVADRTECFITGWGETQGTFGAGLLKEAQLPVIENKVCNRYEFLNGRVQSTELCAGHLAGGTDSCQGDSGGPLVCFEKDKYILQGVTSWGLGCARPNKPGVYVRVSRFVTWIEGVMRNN

For CC(=O)C=O [MG, Methylglyoxal], the Modifications (plasminogen site 43) was “MG-HI”, the Modifications (plasminogen site 61) was “MG-DH; also recorded: MG-HI” and the Modifications (plasminogen site 68) was “MG-DH; also recorded: MG-HI”. For the same compound, the Modifications (plasminogen site 70) was “MG-DH; also recorded: MG-HI”, the Modifications (plasminogen site 115) was “MG-HI” and the Modifications (plasminogen site 117) was “MG-HI; also recorded: MG-DH”. The Modifications (plasminogen site 134) was “MG-DH”, the Modifications (plasminogen site 220) was “MG-DH; also recorded: MG-HI” and the Modifications (plasminogen site 223) was “MG-HI”. The Modifications (plasminogen site 234) was “MG-DH”, the Modifications (plasminogen site 242) was “MG-DH; also recorded: MG-HI” and the Modifications (plasminogen site 265) was “MG-DH; also recorded: MG-HI”. For the same compound, the Modifications (plasminogen site 290) was “MG-HI”, the Modifications (plasminogen site 312) was “MG-DH; also recorded: MG-HI” and the Modifications (plasminogen site 324) was “MG-HI; also recorded: MG-DH”. For the same compound, the Modifications (plasminogen site 389) was “MG-HI; also recorded: MG-DH”, the Modifications (plasminogen site 474) was “MG-HI; also recorded: MG-DH” and the Modifications (plasminogen site 493) was “MG-HI; also recorded: MG-DH”. For the same compound, the Modifications (plasminogen site 504) was “MG-HI; also recorded: MG-DH”, the Modifications (plasminogen site 530) was “MG-HI; also recorded: MG-DH” and the Modifications (plasminogen site 561) was “MG-HI; also recorded: MG-DH”. The Modifications (plasminogen site 582) was “MG-HI; also recorded: MG-DH”, the Modifications (plasminogen site 644) was “MG-HI” and the Modifications (plasminogen site 712) was “MG-DH; also recorded: MG-HI”. For the same compound, the Modifications (plasminogen site 767) was “MG-HI; also recorded: MG-DH”, the Modifications (plasminogen site 779) was “MG-HI; also recorded: MG-DH” and the Modifications (plasminogen site 789) was “MG-HI; also recorded: MG-DH”. For the same compound, the Modifications (plasminogen sites 115/117 on one peptide, two adducts) was “MG-HI;; also recorded: MG-HI; also recorded: MG-DH;; also recorded: MG-DH”, the Modifications (plasminogen sites 220/223 on one peptide, two adducts) was “MG-HI;; also recorded: MG-DH; also recorded: MG-HI; also recorded: MG-DH;” and the Modifications (plasminogen sites 312/324 on one peptide, two adducts) was “MG-DH;; also recorded: MG-HI; also recorded: MG-DH; also recorded: MG-HI;”. The Modifications (plasminogen sites 474/493 on one peptide, two adducts) was “MG-DH;; also recorded: MG-HI; also recorded: MG-HI;”, the Modifications (plasminogen sites 489/504 on one peptide, two adducts) was “MG-HI;; also recorded: MG-DH” and the Modifications (plasminogen sites 779/789 on one peptide, two adducts) was “MG-HI;; also recorded: MG-DH; also recorded: MG-HI; also recorded: MG-DH;”. The “Spectra Observed” value (site 43, MG-HI, C(+57)EEDEEFTC(+57)RAFQYHSK) was 1, the “Spectra Observed” value (site 61, MG-DH, EQQC(+57)VIMAENRK) was 3 and the “Spectra Observed” value (site 61, MG-HI, EQQC(+57)VIMAENRK) was 4. The “Spectra Observed” value (site 68, MG-DH, SSIIIRMR) was 2, the “Spectra Observed” value (site 68, MG-HI, KSSIIIRMR) was 1 and the “Spectra Observed” value (site 70, MG-DH, M(+16)RDVVLFEK) was 2. The “Spectra Observed” value (site 70, MG-DH, MRDVVLFEK) was 7, the “Spectra Observed” value (site 70, MG-DH, MRDVVLFEKK) was 2 and the “Spectra Observed” value (site 70, MG-HI, M(+16)RDVVLFEK) was 4. For the same compound, the “Spectra Observed” value (site 70, MG-HI, MRDVVLFEK) was 4, the “Spectra Observed” value (site 70, MG-HI, MRDVVLFEKK) was 4 and the “Spectra Observed” value (site 115, MG-HI, WSST SPHRPR) was 4. For the same compound, the “Spectra Observed” value (site 117, MG-DH, WSSTSPHRPRFSPATHPSEGLEENYC(+57)R) was 9, the “Spectra Observed” value (site 117, MG-HI, WSSTSPHRPRFSPATHPSEGLEENYC(+57)R) was 9 and the “Spectra Observed” value (site 134, MG-DH, FSPATHPSEGLEENYCRNPDNDPQGPWC(+57)YTTDPEKR) was 1. The “Spectra Observed” value (site 220, MG-DH, NPDRELRPWC(+57)FTTDPNK) was 1, the “Spectra Observed” value (site 220, MG-DH, NPDRELRPWC(+57)FTTDPNKR) was 6 and the “Spectra Observed” value (site 220, MG-HI, NPDRELRPWC(+57)FTTDPNK) was 5. The “Spectra Observed” value (site 223, MG-HI, ELRPWC(+57)FTTDPNKR) was 4, the “Spectra Observed” value (site 223, MG-HI, NPDRELRPWC(+57)FTTDPNKR) was 11 and the “Spectra Observed” value (site 234, MG-DH, RWELC(+57)DIPR0) was 2. For the same compound, the “Spectra Observed” value (site 242, MG-DH, WELC(+57)DIPRC(+57)TTPPPSSGPTYQC(+57)LK) was 6, the “Spectra Observed” value (site 242, MG-HI, WELC(+57)DIPRC(+57)TTPPPSSGPTYQC(+57)LK) was 3 and the “Spectra Observed” value (site 265, MG-DH, GTGENYRGNVAVTVSGHTC(+57)QHWSAQTPHTHNR) was 7. The “Spectra Observed” value (site 265, MG-HI, GTGENYRGNVAVTVSGHTC(+57)QHWSAQTPHTHNR) was 5, the “Spectra Observed” value (site 290, MG-HI, GNVAVTVSGHTC(+57)QHWSAQTPHTHNRTPENFPC(+57)K, MH+ 3809.751) was 12 and the “Spectra Observed” value (site 290, MG-HI, GNVAVTVSGHTC(+57)QHWSAQTPHTHNRTPENFPC(+57)K, MH+ 3827.75) was 4.
